These results are taken from EPA's CvTdb concentration-time database.

The test system of data set [1] is Rat. Nature of the data set: concentration in brain after dosing. The note with it: 24 h; dosed: Perfluorooctane Sulfonate; 20 mg/kg; oral; Male; Harlan Sprague Dawley.
For data set [2], the system named is Rat. Put plainly: concentration in liver after dosing. Conditions: 3360 h; dosed: Perfluorooctane Sulfonate; 2 mg/kg; oral; Female; Harlan Sprague Dawley.
Data set [3] deals with Rat. Put plainly: concentration in liver after dosing. The note with it: 1848 h; dosed: Perfluorooctane Sulfonate; 2 mg/kg; oral; Female; Harlan Sprague Dawley.
The subject of data set [4] is Rat. Put plainly: concentration in kidney after dosing. The note with it: 3360 h; dosed: Perfluorooctane Sulfonate; 20 mg/kg; oral; Male; Harlan Sprague Dawley.
The subject of data set [5] is Rat. Put plainly: concentration in plasma after dosing. The note with it: dosed: Perfluorooctane Sulfonate, 2 mg/kg, iv, Female, F344.
Data set [6] relates to Rat. Put plainly: concentration in kidney after dosing. Conditions: 24 h; dosed: Perfluorooctane Sulfonate; 20 mg/kg; oral; Male; Harlan Sprague Dawley.
The test system of data set [7] is Rat. Nature of the data set: concentration in plasma after dosing. The note with it: dosed: Perfluorooctane Sulfonate, 2 mg/kg, iv, Female, F344. This is another data set of the same source.
For data set [8], the system named is Rat. Nature of the data set: concentration in kidney after dosing. The note with it: 24 h; dosed: Perfluorooctane Sulfonate; 2 mg/kg; oral; Female; Harlan Sprague Dawley.
Data set [9] has as its system Rat. Put plainly: concentration in kidney after dosing. Conditions: 3360 h; dosed: Perfluorooctane Sulfonate; 2 mg/kg; oral; Female; Harlan Sprague Dawley.
Data set [10] has as its system Rat. Nature of the data set: concentration in liver after dosing. Conditions: 1 h; dosed: Perfluorohexanoic Acid; 80 mg/kg; oral; Female; Harlan Sprague Dawley.
The subject of data set [11] is Rat. Put plainly: concentration in plasma after dosing. The note with it: dosed: Perfluorohexanoic Acid, 40 mg/kg, iv, Male, F344.
Data set [12] concerns Rat. Nature of the data set: concentration in plasma after dosing. Conditions: dosed: Perfluorohexanoic Acid, 80 mg/kg, oral, Male, Harlan Sprague Dawley.
Data set [13] has as its system Rat. Nature of the data set: concentration in plasma after dosing. Conditions: 2 h; dosed: Gemfibrozil; 50 mg/kg; oral; Male; Sprague-Dawley.
Data set [14] concerns Rat. Put plainly: concentration in plasma after dosing. Conditions: 5 min; dosed: Gemfibrozil; 50 mg/kg; oral; Male; Sprague-Dawley.
For data set [15], the system named is Rat. Nature of the data set: concentration in plasma after dosing. Conditions: 0.5 h; dosed: Gemfibrozil; 4.29 mg/kg; oral; Male; Sprague-Dawley.
The subject of data set [16] is Rat. Put plainly: concentration in plasma after dosing. The note with it: 4 h; dosed: Gemfibrozil; 100 mg/kg; oral; Male; Sprague-Dawley.
For data set [17], the system named is Rat. Put plainly: concentration in brain after dosing. The note with it: 2 h; dosed: 2-Methyltetrahydrofuran; 40 mg/kg; iv; Male; Harlan Sprague Dawley.
Data set [18] deals with Rat. Nature of the data set: concentration in brain after dosing. The note with it: 4 h; dosed: 2-Methyltetrahydrofuran; 40 mg/kg; iv; Male; Harlan Sprague Dawley.
Data set [19] relates to Rat. Nature of the data set: concentration in brain after dosing. Conditions: 7 min; dosed: 2-Methyltetrahydrofuran; 40 mg/kg; iv; Male; Harlan Sprague Dawley.
Data set [20] relates to Rat. Put plainly: concentration in brain after dosing. Conditions: 0.75 h; dosed: 2-Methyltetrahydrofuran; 40 mg/kg; iv; Male; Harlan Sprague Dawley.
The subject of data set [21] is Rat. Nature of the data set: concentration in plasma after dosing. The note with it: 0.5 h; dosed: 2-Methyltetrahydrofuran; 40 mg/kg; iv; Female; Harlan Sprague Dawley.
For data set [22], the system named is Rat. Put plainly: concentration in plasma after dosing. Conditions: 7 min; dosed: 2-Methyltetrahydrofuran; 40 mg/kg; iv; Male; Harlan Sprague Dawley.
Data set [23] relates to Rat. Put plainly: concentration in kidney after dosing. The note with it: 6 h; dosed: Fluorotelomer alcohol 8+2; 24 mg/kg; oral; Male; Harlan Sprague Dawley.
The subject of data set [24] is Rat. Nature of the data set: concentration in plasma after dosing. Conditions: dosed: Fluorotelomer alcohol 8+2, 12 mg/kg, oral, Male, Harlan Sprague Dawley.
Data set [25] concerns Rat. Nature of the data set: concentration in plasma after dosing. The note with it: 3 h; dosed: Fluorotelomer alcohol 8+2; 12 mg/kg; oral; Male; Harlan Sprague Dawley.

On to `O=S(=O)([O-])C(F)(F)C(F)(F)C(F)(F)C(F)(F)C(F)(F)C(F)(F)C(F)(F)C(F)(F)F` [Perfluorooctane Sulfonate], for which the concentration in brain in data set [1] worked out at 9740 ng/g. The figures for the concentration in liver in data set [2] and in data set [3] were 9920 ng/g and 12000 ng/g, respectively. Further, the concentration in kidney in data set [4] is 10400 ng/g; in [6], 67900 ng/g; in data set [8], 4940 ng/g; in [9] it was 651 ng/g. The concentration in plasma in [5] (5 min) is 5590 ng/mL; in data set [5] (192 h), 4170 ng/mL; in data set [5] (1704 h), 940 ng/mL; in data set [7] (1 h), 4240 ng/mL; in [7] (192 h) it was 4100 ng/mL; in [7] (2376 h), 105 ng/mL.

The compound `O=C(O)C(F)(F)C(F)(F)C(F)(F)C(F)(F)C(F)(F)F` [Perfluorohexanoic Acid] had a concentration in liver in [10] of 39700 ng/g. For the same compound, the concentration in plasma amounted to 23100 ng/mL in data set [11] (5 min), 3900 ng/mL in data set [11] (3 h), 29100 ng/mL in data set [12] (5 min) and 4040 ng/mL in data set [12] (9 h).

`Cc1ccc(C)c(OCCCC(C)(C)C(=O)O)c1` [Gemfibrozil]: the concentration in plasma in [13] was found to be 7210 ng/mL; in data set [14], 2350 ng/mL; in data set [15], 424 ng/mL; in data set [16], 6150 ng/mL.

On to `CC1CCCO1` (configuration not stated) [2-Methyltetrahydrofuran], for which the concentration in brain turned out to be 7820 ng/mL in [17], 184 ng/mL in data set [18], 31000 ng/mL in [19] and 14400 ng/mL in data set [20]. Further, the concentration in plasma in [21] came out at 27200 ng/mL; in data set [22], 57300 ng/mL.

Regarding `O=C(O)CCC(F)(F)C(F)(F)C(F)(F)C(F)(F)C(F)(F)C(F)(F)C(F)(F)F` [Fluorotelomer acid 7+3], the concentration in kidney in data set [23] amounted to 1250 ng/g. For the same compound, the concentration in plasma worked out at 169 ng/mL in [24] (48 h), 26.3 ng/mL in [24] (192 h) and 866 ng/mL in data set [25].
